Assay [1] has as its target T1, Alpha-1D adrenergic receptor (Homo sapiens, UniProt P25100).
T1 sequence (P25100 whole entry): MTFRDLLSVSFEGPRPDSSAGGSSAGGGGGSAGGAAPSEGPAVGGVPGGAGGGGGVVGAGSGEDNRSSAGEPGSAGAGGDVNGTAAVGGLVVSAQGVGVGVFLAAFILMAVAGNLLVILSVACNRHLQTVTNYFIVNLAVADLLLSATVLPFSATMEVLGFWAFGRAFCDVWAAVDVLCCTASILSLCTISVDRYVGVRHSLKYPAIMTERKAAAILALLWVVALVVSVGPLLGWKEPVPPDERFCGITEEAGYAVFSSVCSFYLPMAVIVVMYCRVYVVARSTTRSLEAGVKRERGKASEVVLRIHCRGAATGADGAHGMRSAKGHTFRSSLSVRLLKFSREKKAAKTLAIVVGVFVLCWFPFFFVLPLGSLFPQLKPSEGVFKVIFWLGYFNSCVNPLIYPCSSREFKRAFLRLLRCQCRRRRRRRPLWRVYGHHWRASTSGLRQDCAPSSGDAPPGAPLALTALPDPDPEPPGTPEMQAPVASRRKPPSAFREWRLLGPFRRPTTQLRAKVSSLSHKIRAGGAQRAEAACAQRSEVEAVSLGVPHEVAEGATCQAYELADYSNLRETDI
Nature of the assay: Agonism of recombinant human alpha-1D adrenergic receptor, expressed in rat 1 fibroblast cells. It is filed as functional, cell-based.

The target in assay [2] is T1, Alpha-1D adrenergic receptor. Nature of the assay: Inhibitory concentration against radioligand binding to human Alpha-1D adrenergic receptor, expressed in rat 1 fibroblast cells. It is filed as cell-based.
Assay [3] concerns the target T2, Alpha-1B adrenergic receptor (Homo sapiens, UniProt P35368).
T2 sequence (P35368 whole entry): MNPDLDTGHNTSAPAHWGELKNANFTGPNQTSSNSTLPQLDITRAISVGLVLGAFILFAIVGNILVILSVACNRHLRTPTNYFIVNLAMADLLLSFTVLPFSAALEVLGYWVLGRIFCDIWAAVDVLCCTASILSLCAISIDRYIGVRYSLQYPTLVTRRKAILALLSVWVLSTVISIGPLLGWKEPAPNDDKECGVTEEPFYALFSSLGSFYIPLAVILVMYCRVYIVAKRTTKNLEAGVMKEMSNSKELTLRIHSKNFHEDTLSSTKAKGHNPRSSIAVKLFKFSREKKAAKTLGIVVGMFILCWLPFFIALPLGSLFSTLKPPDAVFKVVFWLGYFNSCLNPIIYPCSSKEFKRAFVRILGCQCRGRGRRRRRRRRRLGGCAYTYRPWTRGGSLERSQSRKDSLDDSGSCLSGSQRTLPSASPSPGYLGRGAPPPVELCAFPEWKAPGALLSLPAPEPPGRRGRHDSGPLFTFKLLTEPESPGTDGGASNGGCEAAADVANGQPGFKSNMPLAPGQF
Nature of the assay: Inhibitory concentration against radioligand binding to human Alpha-1B adrenergic receptor, expressed in rat 1 fibroblast cells. Type of assay: cell-based.

Assay [4] addresses T3, Alpha-1A adrenergic receptor (Homo sapiens) (UniProt P35348).
T3 sequence (whole entry): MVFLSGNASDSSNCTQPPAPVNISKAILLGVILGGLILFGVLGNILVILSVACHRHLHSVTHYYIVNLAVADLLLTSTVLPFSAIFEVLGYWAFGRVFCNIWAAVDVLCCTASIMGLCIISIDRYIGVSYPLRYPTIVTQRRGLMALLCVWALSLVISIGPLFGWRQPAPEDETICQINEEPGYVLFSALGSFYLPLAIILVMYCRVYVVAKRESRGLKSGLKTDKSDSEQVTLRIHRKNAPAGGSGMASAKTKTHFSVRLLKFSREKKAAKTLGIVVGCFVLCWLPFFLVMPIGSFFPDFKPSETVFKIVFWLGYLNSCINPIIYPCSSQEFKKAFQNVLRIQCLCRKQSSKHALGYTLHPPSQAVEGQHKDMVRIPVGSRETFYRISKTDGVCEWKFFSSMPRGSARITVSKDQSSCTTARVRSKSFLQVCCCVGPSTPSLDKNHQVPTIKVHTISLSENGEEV
Nature of the assay: Maximal response assayed via calcium mobilization to the human alpha-1A adrenergic receptor compared the percent of the […] phenylephrine response. Type of assay: functional. (A change in cytosolic calcium serves as a functional read-out for many receptors and channels.)

Assay [5] deals with T2, Alpha-1B adrenergic receptor. Nature of the assay: Agonism of human alpha-1B adrenergic receptor, expressed in rat 1 fibroblast cells. It is filed as functional, cell-based.
In assay [6] the target is T4, Alpha-1B adrenergic receptor (Homo sapiens) (UniProt P35368).
T4 sequence (whole entry): T2 sequence (P35368 whole entry)
Put plainly: Maximal response assayed via calcium mobilization to human alpha-1B adrenergic receptor compared to percent of the […] phenylephrine response. It is filed as functional.

Assay [7] deals with T5, Alpha-1A adrenergic receptor (Homo sapiens, UniProt P35348).
T5 sequence (P35348 whole entry): T3 sequence (whole entry)
Nature of the assay: Inhibitory concentration against radioligand binding to human Alpha-1A adrenergic receptor, expressed in rat 1 fibroblast cells. It is filed as cell-based.

Assay [8] addresses T5, Alpha-1A adrenergic receptor. Put plainly: Agonism of human alpha-1A adrenergic receptor expressed in rat 1 fibroblast cells. It is filed as functional, cell-based.
Assay [9] addresses T6, Alpha-1D adrenergic receptor (Homo sapiens) (UniProt P25100).
T6 sequence (whole entry): T1 sequence (P25100 whole entry)
Put plainly: Maximal response via calcium mobilization towards Human Alpha-1D adrenergic receptor as percent relative to […] phenylephrine. It is filed as functional.

The target of assay [10] is T6, Alpha-1D adrenergic receptor (Homo sapiens). Put plainly: Maximal response via calcium mobilization towards Human Alpha-1D adrenergic receptor as percent rtelative to […] phenylephrine. Type of assay: functional.
In assay [11] the target is T1, Alpha-1D adrenergic receptor. Put plainly: Inhibitory concentration against radioligand binding to human aAlpha-1D adrenergic receptor, expressed in rat 1 fibroblast cells. Type of assay: cell-based.

The structures appear in SMILES notation.

In the case of `Cn1nccc1-c1ccccc1NCC1=NCCN1`, the EC50 – broadly, the midpoint of the concentration-response curve – in assay [1] is more than 100000 nM; in assay [5], more than 100000 nM; in assay [8] it was 10 nM. The IC50 (commonly the point on the concentration scale where inhibition reaches its midpoint) is 501 nM in assay [2], 398 nM in assay [3] and 200 nM in assay [7]. Moreover, the values for the Max response in assay [4], in [6] and in [9] were 108%, 0% and 0%, respectively.

As for `CCCn1nccc1-c1ccccc1NCC1=NCCN1`, the figures for the EC50 in assay [1], in assay [5] and in assay [8] were more than 100000 nM, more than 100000 nM and 251 nM, respectively. The Max response worked out at 59% in assay [4], 0% in assay [6] and 0% in [9].

Consider `CCCCn1ncnc1-c1ccccc1NCC1=NCCN1`, for which the values for the Max response in assay [10], in [4] and in assay [6] were 66%, 86% and 83%, respectively. In addition, the EC50 in assay [1] is 398 nM; in [5] it was 200 nM; in assay [8], 200 nM.

Turning to `CCn1nccc1-c1ccccc1NCC1=NCCN1`, the values for the EC50 in [1], in [5] and in assay [8] were more than 100000 nM, more than 100000 nM and 63.1 nM, respectively. In addition, the Max response in assay [4] was 81%; in [6], 0%; in assay [9] it was 0%.

With `Cn1cc(-c2ccccc2NCC2=NCCN2)cn1`, the EC50 was more than 100000 nM in assay [1], more than 100000 nM in assay [5] and 398 nM in assay [8]. For the same molecule, the Max response in [4] is 39%; in assay [6] it was 0%; in assay [9], 0%.

As to `Cn1cccc1-c1ccccc1NCC1=NCCN1`, the figures for the EC50 in assay [1], in [5] and in assay [8] were 251 nM, more than 100000 nM and 20 nM, respectively. Further, the Max response came out at 103% in assay [4], 0% in assay [6] and 32% in [9].

Take `FC(F)(F)Cn1nccc1-c1ccccc1NCC1=NCCN1`: the EC50 was more than 100000 nM in assay [1], more than 100000 nM in [5] and 316 nM in assay [8]. The Max response in [4] came out at 76%; in [6] it was 0%; in assay [9], 0%.

Consider `CCn1cccc1-c1ccccc1NCC1=NCCN1`, for which the values for the EC50 in [1], in [5] and in assay [8] were more than 100000 nM, more than 100000 nM and 2.51 nM, respectively. In addition, the Max response in [4] was found to be 93%; in assay [6], 0%; in assay [9], 0%.

`c1ccc(-c2nc[nH]n2)c(NCC2=NCCN2)c1`: the Max response in assay [10] was determined as 123%; in assay [4], 135%; in assay [6], 100%. For the same molecule, the EC50 was 3.98 nM in [1], 5.01 nM in assay [5] and 0.794 nM in [8].

For `FC(F)(F)Cn1ncnc1-c1ccccc1NCC1=NCCN1`, the results for the Max response in [10], in [4] and in assay [6] were 0%, 91% and 0%, respectively. The results for the EC50 in assay [1], in assay [5] and in assay [8] were more than 100000 nM, more than 100000 nM and 79.4 nM, respectively.

As to `CCn1ccc(-c2ccccc2NCC2=NCCN2)n1`, the results for the concentration giving a half-maximal response (EC50) in [1], in assay [5] and in assay [8] were more than 100000 nM, more than 100000 nM and 25.1 nM, respectively. For the same molecule, the figures for the Max response in [4], in [6] and in assay [9] were 78%, 0% and 0%, respectively.

Take `Cn1ncnc1-c1ccccc1NCC1=NCCN1`: the Max response amounted to 116% in assay [10], 91% in assay [4] and 93% in assay [6]. In addition, the EC50 in [1] was 63.1 nM; in assay [5], 39.8 nM; in assay [8], 2 nM.

Consider `c1ccc(-c2cn[nH]c2)c(NCC2=NCCN2)c1`, for which the EC50 in [1] is 20 nM; in [5] it was 79.4 nM; in assay [8] it was 1.26 nM. The results for the Max response in assay [4], in assay [6] and in [9] were 112%, 72% and 62%, respectively.

Turning to `c1ccc(-c2cc[nH]n2)c(NCC2=NCCN2)c1`, the Max response amounted to 54% in assay [10], 104% in [4] and 95% in [6]. For the same molecule, the EC50 is 20 nM in [1], 5.01 nM in assay [5] and 1 nM in [8]. In addition, the IC50 is 39.8 nM in assay [11], 158 nM in assay [3] and 25.1 nM in [7].

On to `Cn1ccnc1-c1ccccc1NCC1=NCCN1`, for which the EC50 is 200 nM in assay [1], 39.8 nM in [5] and 6.31 nM in [8]. In addition, the figures for the Max response in [4], in assay [6] and in assay [9] were 88%, 104% and 92%, respectively.

As to `CCCn1ncnc1-c1ccccc1NCC1=NCCN1`, the Max response in [10] is 57%; in assay [4], 96%; in assay [6], 74%. For the same molecule, the EC50 in assay [1] was 251 nM; in assay [5] it was 316 nM; in assay [8] it was 12.6 nM.

For `CC(C)n1ncnc1-c1ccccc1NCC1=NCCN1`, the figures for the Max response in [10], in assay [4] and in [6] were 37%, 104% and 0%, respectively. Further, the EC50 is 3160 nM in assay [1], more than 100000 nM in assay [5] and 6.31 nM in assay [8].

`Cc1n[nH]c(-c2ccccc2NCC2=NCCN2)n1`: the Max response in assay [10] was 0%; in assay [4] it was 87%; in [6] it was 0%. In addition, the EC50 in assay [1] was more than 5010 nM; in assay [5], more than 5010 nM; in [8] it was 794 nM.

In the case of `CCn1ncnc1-c1ccccc1NCC1=NCCN1`, the Max response in assay [10] amounted to 55%; in [4] it was 107%; in assay [6], 94%. Also, the figures for the half-maximal effective concentration (EC50) in [1], in assay [5] and in assay [8] were 126 nM, 63.1 nM and 1.26 nM, respectively.

With `Cn1ccc(-c2ccccc2NCC2=NCCN2)n1`, the EC50 in [1] is 15.8 nM; in [5], 50.1 nM; in [8], 3.16 nM. The Max response in assay [4] worked out at 116%; in assay [6] it was 33%; in assay [9] it was 29%.

As for `Cc1ccc(-c2ccccc2NCC2=NCCN2)n1C`, the results for the EC50 in assay [1], in assay [5] and in assay [8] were more than 100000 nM, more than 100000 nM and 50.1 nM, respectively. The Max response is 78% in assay [4], 0% in assay [6] and 0% in assay [9].

Take `CCn1cc(-c2ccccc2NCC2=NCCN2)cn1`: the EC50 in [1], in [5] and in [8] was more than 100000 nM each time. The Max response in assay [4], in assay [6] and in assay [9] was 0% throughout.

Consider `Cc1nc(-c2ccccc2NCC2=NCCN2)n(C)n1`, for which the Max response in [10] turned out to be 0%; in assay [4], 98%; in assay [6] it was 0%. In addition, the EC50 in assay [1] was more than 5010 nM; in assay [5] it was more than 5010 nM; in assay [8] it was 1000 nM.

Turning to `CC(C)n1nccc1-c1ccccc1NCC1=NCCN1`, the EC50 in [1], in assay [5] and in [8] was more than 100000 nM each time. The Max response in [4], in assay [6] and in assay [9] was 0% in each case.

These data come from ChEMBL document CHEMBL1145766, “2-(Anilinomethyl)imidazolines as alpha1 adrenergic receptor agonists: alpha1a subtype selective 2'-heteroaryl compounds” (Bioorg Med Chem Lett, 2003).
